Experimental data published in paper PMC8945229, “Development and Biological Characterization of a Novel Selective TrkA Agonist with Neuroprotective Properties against Amyloid Toxicity” (Biomedicines, 2022).

Tests used:
PC12 cells = test: CellTox assay, serum deprivation-induced cell death; assay type: cell-based
Description: CellTox assay (G8742, Promega Corporation, Maddison, WI, USA) was used to assess survival of PC12 cells under serum deprivation conditions. PC12 cells were plated in 96-well plates, starved of serum for 4 h and subsequently treated with NGF (100 ng/mL) or ENT-A013 (500 nM) in the presence or absence of TrkA inhibitor GW441756 (20 μM, G-190, Alomone labs, Jerusalem, Israel) for 24 h. CellTox assay reagents and Hoescht (1:10,000, H3570, Invitrogen, Waltham, MA, USA) were added to each well for 30′ and cells were then imaged with a Zeiss AXIO Vert A1 fluorescent microscope (Zeiss, Jena, Germany). CellTox positive cells were normalized to total number of cells for each image.

[1] = test system: Primary Dorsal Root Ganglia (DRG) neurons; test: Neurite outgrowth assay in primary DRG neurons without NGF; assay type: cell-based, mouse; conditions: 500 nM every 48 h, 5 DIV, NGF-neutralizing antibody
Description: Primary Dorsal Root Ganglia (DRG) neurons were isolated from P0-P1 mouse pups (C57BL/6J, The Jackson Laboratory, Bar Harbor, ME, USA) as described previously and cultured with Neurobasal medium (21103049 Gibco, Grand Island, NY, USA) containing 2% B27 (17504044, Gibco, Grand Island, NY, USA), 100 ng/mL NGF (N-100, Alomone Labs, Jerusalem, Israel), 1X GlutaMax (35050061, Gibco, Grand Island, NY, USA), 10 mM HEPES (15630080, Gibco, Grand Island, NY, USA), 1% Penicillin/Streptomycin (15070063, Gibco, Grand Island, NY, USA) and 10 μM 5-Fluoro-2′-deoxyuridine (343333, Calbiochem, Darmstadt, Germany). For TUNEL assay, cells were cultured for 14 days in vitro and then the medium was deprived of NGF before adding ENT-A013 (500 nM, every 24 h) along with NGF-neutralizing antibody (N8773, 1:500, Sigma-Aldrich, St. Louis, MO, USA). Cells were then incubated for 48 h before being fixed with 4% PFA and labelled with TUNEL (11684795910, F. Hoffmann–La Roche Ltd., Basel, Switzerland) following the manufacturer’s protocol. Subsequently, cells were immunostained against Tuj1 (1:2000, 801201, Biolegend, Inc., San Diego, CA, USA) and anti-mouse Cy3 (1:1000, Invitrogen, A10521, Waltham, MA, USA) and imaged with a Leica SP8 confocal microscope. […] Cells were then imaged by confocal microscopy and neurite length was measured using Fiji software (NIH, Bethesda, Maryland, USA).

TrkC = target: T1, TrkC (Homo sapiens, UniProt Q16288); test: TrkC phosphorylation in NIH-3T3 cells stably transfected with TrkC; assay type: cell-based; conditions: 500 nM, 30′
T1 construct: expressed in transfected cells
T1 sequence (Q16288 32-839, species assumed): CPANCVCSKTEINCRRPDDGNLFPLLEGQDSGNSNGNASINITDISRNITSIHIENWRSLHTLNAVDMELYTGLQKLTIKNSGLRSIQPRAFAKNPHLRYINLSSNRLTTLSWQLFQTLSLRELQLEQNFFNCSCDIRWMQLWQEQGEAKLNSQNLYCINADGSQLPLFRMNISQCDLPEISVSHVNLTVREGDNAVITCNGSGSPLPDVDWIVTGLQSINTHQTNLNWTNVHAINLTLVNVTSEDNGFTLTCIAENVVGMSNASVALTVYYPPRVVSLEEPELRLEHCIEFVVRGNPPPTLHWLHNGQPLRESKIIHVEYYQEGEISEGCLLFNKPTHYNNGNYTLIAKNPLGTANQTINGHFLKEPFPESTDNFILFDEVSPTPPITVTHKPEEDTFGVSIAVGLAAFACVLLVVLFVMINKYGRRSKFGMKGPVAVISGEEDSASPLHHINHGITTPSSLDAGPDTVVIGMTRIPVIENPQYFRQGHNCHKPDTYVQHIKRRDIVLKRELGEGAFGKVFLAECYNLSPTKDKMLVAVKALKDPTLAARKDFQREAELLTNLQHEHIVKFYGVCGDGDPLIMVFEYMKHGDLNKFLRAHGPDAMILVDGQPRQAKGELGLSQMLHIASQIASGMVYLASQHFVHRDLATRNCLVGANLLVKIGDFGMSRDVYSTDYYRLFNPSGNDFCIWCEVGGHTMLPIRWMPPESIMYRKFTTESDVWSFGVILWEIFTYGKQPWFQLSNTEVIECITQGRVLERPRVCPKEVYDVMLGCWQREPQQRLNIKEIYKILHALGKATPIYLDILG
Description: For immunoprecipitation experiments PC12 or HEK293T, cells were used when at 70–80% confluent. Cells were starved of serum for 4 h and subsequently treated with 100 ng/mL NGF or 500 nM of compound ENT-A013 for 30′. Cells were then lysed in Pierce™ IP Lysis Buffer (87788, Thermo Fischer Scientific, Waltham, MA, USA) containing proteases (539138, Calbiochem, Darmstadt, Germany) and phosphatase inhibitors (524629, Calbiochem, Darmstadt, Germany). Lysates were then immunoprecipitated overnight at 4 °C with TrkA antibody (1:100, 06-574, Sigma-Aldrich, St. Louis, MO, USA) (Table S1) or p75^NTR antibody (1:100, ab6172, Abcam plc., Cambridge, UK) followed by 4 h incubation with protein G-plus agarose beads (sc-2002, Santa Cruz Biotechnology, Inc., Dallas, TX, USA). Beads were then collected, washed 3X with lysis buffer, resuspended in SDS loading buffer and subjected to Western blot against phosphorylated Tyrosine (1:1000, BAM1676, R&D Systems, Inc., Minneapolis, MN, USA) or Traf6 antibody (1:2000, ab33915, Abcam, plc., Cambridge, UK). […]
phosphorylated any of those. […] Quantification (E) […]
Supplementary Figure S3: Primary DRG neurons were cultured in the presence of ENT-A013 (500nM, supplemented every 48hrs) and a neutralizing antibody against NGF for 5 days and then neurite length was measured by immunostaining against Tuj1 . […]

## CC12CCC(O)CC1=CCC1C2CCC2(C)C1CCC21CC1C=CBr [ENT-A013, (2′R,3S,17S)-2′-(2-Bromovinyl)-5-Androstene-17,1′-Cyclopropan-3-ol]
PC12 cells; Rattus norvegicus, PC-12, serum deprivation, CellTox, read-out: IC50 (anti-apoptotic dose–response)
  IC50: 167 nM
PC12 cells; serum deprivation, 24 h, 500 nM
  CellTox positive cells normalized to total number of cells: 0.11 ± 0.01
[1]
  axonal / neurite length (in words): this difference was not significant
TrkC
  TrkC phosphorylation (in words): did not induce phosphorylation
